“Also recorded” adds a separate entry of the source.
What was measured:
[1] = tested on: 3LL tumor (Lewis lung carcinoma); assay: 3LL tumor growth in black mice
human cancer cell lines = assay: Cytotoxicity summary (NCI-60 or independent cytotoxicity screen), Scheme 19; assay type: cell-based
[2] = tested on: 60 human cancer cell lines; assay: NCI-60 five-dose screen, mean cytotoxicity over 60 human cancer cell lines; assay type: cell-based
Method: The gold(III) complexes of this invention were screened by the National Cancer Institute (NCI, USA) against their panel of 60 different human cancer cell lines. These screens initially entail a one-dose test for the compound at a high concentration (10 μM; e.g. FIGS. 5, 6 and 7). Compounds with a good cytotoxicity profile in the one-dose screen are then subjected to a five-dose screen for the full panel of sixty human cancer cell lines (the so-called 5-dose NCI-60 screen). In the full five-dose screen, the compound concentration is varied in five doses from 10^−8 M to 10^−4 M in order to establish a dose-response function of percentage cell growth versus the concentration of the test agent. […] Similar data will shortly be available for compounds 1.1Y^1b and 1.5Y^1a as these derivatives are in 5-dose screens currently at the NCI.
The mean cytotoxicity data summarized in Scheme 7 were compiled over 60 human cancer cell lines from the NCI database. […] The dose-response curves for the bis(pyrrolide-imine) chelates of the invention are steeper, or harder, than those of all the compounds compared in Scheme 7.

Microsomal clearance = assay type: in vitro ADME; details: microsomes
Source text: First, the compound is not genotoxic (i.e. mutagenic).

[3] = Hydrolysis in aqueous solution; assay type: physicochemical; details: aqueous / phosphate buffered aqueous solutions
Source text: This is why binding to DNA of the intact chelate occurs (FIGS. 14 and 20). However, it is noteworthy that hydrolysis of a Au(III)-Npyrrole bond is a reaction that may be catalyzed by enzymes in plasma and could account for the plasma instability of MA_AuPr.

calf thymus DNA = assay: Calf-thymus DNA titration (absorption hypochroism); assay type: binding; details: MA series: pH 7.0 phosphate buffer at 37° C.
Method: FIG. 20 is a graph of the titration of MA_AuPr (1.1a) with calf-thymus DNA in aqueous pH 7 phosphate buffer at 37° C.
The hypochroism of the absorption band of the complex at 383 nm was monitored as a function of added ctDNA. […] Ka is the equilibrium binding constant in M^−1, Ct is the total Au(III) complex concentration, and s is the binding site size.

topoisomerase I = molecular target: T1, topoisomerase I (Homo sapiens, UniProt P11387); assay: Topoisomerase I poison/inhibitor EB gel assay; assay type: biochemical; details: compared with CPT (camptothecin)
T1 sequence (P11387 1-765): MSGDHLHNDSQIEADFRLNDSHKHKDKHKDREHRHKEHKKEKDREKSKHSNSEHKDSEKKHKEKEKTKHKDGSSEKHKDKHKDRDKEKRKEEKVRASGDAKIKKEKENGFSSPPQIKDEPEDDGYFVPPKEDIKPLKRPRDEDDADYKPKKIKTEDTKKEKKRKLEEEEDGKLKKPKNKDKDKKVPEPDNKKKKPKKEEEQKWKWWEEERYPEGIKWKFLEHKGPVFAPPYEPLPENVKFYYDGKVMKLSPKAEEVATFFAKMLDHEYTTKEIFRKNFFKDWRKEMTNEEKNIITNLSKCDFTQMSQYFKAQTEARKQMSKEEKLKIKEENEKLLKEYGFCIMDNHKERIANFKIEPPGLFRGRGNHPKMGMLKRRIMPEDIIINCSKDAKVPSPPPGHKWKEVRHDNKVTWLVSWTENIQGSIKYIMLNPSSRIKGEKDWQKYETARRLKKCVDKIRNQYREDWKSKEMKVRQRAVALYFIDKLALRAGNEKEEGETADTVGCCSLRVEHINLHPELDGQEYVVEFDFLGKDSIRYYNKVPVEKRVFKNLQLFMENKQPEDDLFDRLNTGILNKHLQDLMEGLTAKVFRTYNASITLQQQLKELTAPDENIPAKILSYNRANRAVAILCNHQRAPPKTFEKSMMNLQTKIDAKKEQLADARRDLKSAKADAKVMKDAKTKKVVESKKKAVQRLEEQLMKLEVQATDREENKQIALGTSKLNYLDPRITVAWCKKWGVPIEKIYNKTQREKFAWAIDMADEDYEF
Method: The compound MA_AuPr clearly targets topoisomerase II if the statistical analysis of the NCI data for a range of drugs shown in FIG. 13 is correct. MA_AuPr was therefore assayed for its action against topoisomerase II in vitro using TopoGEN's standard protocol over a wide range of test agent concentrations (0.005 to 500 μM) in order to obtain direct experimental proof for the apparent cellular target of the compound to ensure that a fundamental understanding of the mechanism of action of this new class of Au(III) compounds exists. These experiments were performed by the company TopoGEN and at the University of Central Florida. The DNA cleavage experiments were performed in vitro using purified topoisomerase I and II enzymes and supercoiled plasmid DNA as the substrate. The controls that were used in the experiment were linear marker DNA as well as reactions without the gold(III) complex and high concentrations of VP16. The compound VP16 (etoposide) is a commercially available DNA intercalator chemotherapeutic agent, widely used in the treatment of lung and testicular cancers as well as lymphomas. […]

C1=NCCCN=Cc2ccc[n]2[Au+][n]2cccc21.[Cl-] [MA_AuPr, 2,2′-{propane-1,3-diylbis[nitrilo(E)methylylidene]}bis(pyrrol-1-ido)gold(III) chloride]
in vivo performance relative to cisplatin ([1]; 3LL tumors, 20 days): about 43%
reduction of 3LL tumor growth rate relative to control ([1]; after 20 days, 20 μmol/kg twice weekly): about 33%
Cytotoxicity (human cancer cell lines): active
fraction of cancer cell lines equivalently or more susceptible than to cisplatin ([2]; 60 human cancer cell lines): ca. 25%
CC50 ([2]; mean over 60 human cancer cell lines, 50% cell death, read-out: LC50 (the source's name)): 49 µM
GI50 ([2]; mean over 60 human cancer cell lines, 50% growth inhibition): 7 µM
TGI (concentration for total growth inhibition) ([2]; mean over 60 human cancer cell lines, 100% (total) growth inhibition, read-out: TGI or IC50): 20 µM
increase in concentration from 50% growth inhibition to 50% cell kill ([2]; on average over the full 60 cell lines): 7 fold
growth inhibition activity relative to cisplatin, on average ([2]; plot of −log(GI50/M) versus cisplatin, FIG. 10): 95%
Microsomal clearance t1/2 (Microsomal clearance): t1/2 < 10 min
hydrolysis [3]: did not show hydrolysis
Ka (calf thymus DNA) (calf thymus DNA): 2.05(2) × 10^5 M^−1
activity against topoisomerase I (topoisomerase I): inactivity; also recorded: not a topoisomerase I poison

Source: patent US9346832B2, “Gold complexes for use in the treatment of cancer” (University of Kwazulu-Natal, priority 2010, dated 2016)
